Assay results: patent US8709449B2, “Methods and compositions for improving photodynamic therapy through administration of lipids” (Biolitec Pharma Marketing Ltd, priority 2004, dated 2014)

How the values were obtained:
[1] = Skin fluorescence in a dog after simultaneous injection of mTHPC and Lipofundin; format: in vivo; settings: mTHPC diluted in Lipofundin to 0.75 mg/ml, simultaneous bolus injection
Protocol: FIG. 4—Graph of results of skin fluorescence in sarcoma and skin of a dog after simultaneous injection of mTHPC and Lipofundin.
In this example, a standard mTHPC solution, having 4 mg of mTHPC per ml of solution (4 mg/ml), was diluted in Lipofundin until the concentration of mTHPC in the mixture is 0.75 mg/ml. The mixture was then injected, thus both the photosensitizer and phospholipids were simultaneously injected. […] As is shown in FIG. 4, after only 6 hours, the fluorescence of the skin was substantially the same as that measured prior to injection, thus the skin was no longer photosensitive after this short amount of time.

[2] = Clinical monitoring of Foscan skin fluorescence by OBS in patients with basal-cell cancer after Foscan PDT; format: in vivo, human; settings: ten patients
Protocol: Ten patients (6 male, 4 female) with basal-cell cancer (BCC) of the skin were treated with Foscan PDT course having a drug dose of 0.05 mg/kg, a drug-light interval 48 hours, and a 50 J/cm^2 light dose. Immediately after the laser treatment these patients were given intravenous drop infusions of 10% Lipofundin (250 ml). Patients were administered a second infusion of 10% Lipofundin solution (250 ml) the next day.
A group of ten patients (6 male, 4 female) with BCC of the skin, were administered Foscan PDT course having a drug dose of 0.05 mg/kg, a drug-light interval 48 hours, and a 50 J/cm^2 light dose. No 10% Lipofundin infusions were administered post-irradiation.
A computer-based spectrometer Optical Biopsy System (OBS) specially tuned for clinical monitoring of skin fluorescence was used to detect and measure skin fluorescence. The OBS uses a 400 nm diode laser to induce FOSCAN fluorescence (wavelength 655 nm) which is then detected and measured by the OBS spectrometer.
Fluorescence measurements were performed in intact skin of the cheek at certain time points after Foscan injection. Fluorescence monitoring began 2 days after Foscan administration and was continued for 7 weeks following Foscan administration. All measurements were performed by using contact tip (FD-1 Handstuck). Each fluorescence measurement was performed 4 times, all results were recorded, and the average value was used for further analysis.

[3] = mTHPC concentration in tumor, skin and plasma of mice after injection (Trial 1 mTHPC, Trial 2 LMF); format: in vivo, mouse
Protocol: FIG. 1—Graph showing meta-tetra(hydroxyphenyl)chlorin (“mTHPC”) concentration in tumor, skin and blood of a mouse after a dose of 10 μg mTHPC.
FIG. 2—Graph showing mTHPC concentration in tumor, skin and blood of a mouse after a dose of 5 μg mTHPC solubilized in Lipofundin MCT 10% (“LMF”).
This formulation is abbreviated “LMF”.

Structure (SMILES): Oc1cccc(-c2c3nc(c(-c4cccc(O)c4)c4ccc([nH]4)c(-c4cccc(O)c4)c4nc(c(-c5cccc(O)c5)c5ccc2[nH]5)CC4)C=C3)c1 [mTHPC, meta-tetra(hydroxyphenyl)chlorin]
- skin fluorescence after injection [1]: rapid decrease in skin fluorescence
- time after which skin fluorescence was substantially the same as prior to injection [1]: 6 h
- Number of patients exhibiting no detectable skin fluorescence as detected by OBS ([2]; 7 days after Foscan application, Control Group: Foscan 0.05 mg/kg PDT, no Lipofundin infusions): 0
- Number of patients exhibiting no detectable skin fluorescence as detected by OBS ([2]; 7 days after Foscan application, Experimental Group: Foscan 0.05 mg/kg PDT plus two 250 ml 10% Lipofundin infusions after irradiation): 0
- Number of patients exhibiting no detectable skin fluorescence as detected by OBS ([2]; 14 days after Foscan application, Control Group: Foscan 0.05 mg/kg PDT, no Lipofundin infusions): 0
- Number of patients exhibiting no detectable skin fluorescence as detected by OBS ([2]; 14 days after Foscan application, Experimental Group: Foscan 0.05 mg/kg PDT plus two 250 ml 10% Lipofundin infusions after irradiation): 2
- Number of patients exhibiting no detectable skin fluorescence as detected by OBS ([2]; 21 days after Foscan application, Control Group: Foscan 0.05 mg/kg PDT, no Lipofundin infusions): 2
- Number of patients exhibiting no detectable skin fluorescence as detected by OBS ([2]; 21 days after Foscan application, Experimental Group: Foscan 0.05 mg/kg PDT plus two 250 ml 10% Lipofundin infusions after irradiation): 5
- Number of patients exhibiting no detectable skin fluorescence as detected by OBS ([2]; 28 days after Foscan application, Control Group: Foscan 0.05 mg/kg PDT, no Lipofundin infusions): 7
- Number of patients exhibiting no detectable skin fluorescence as detected by OBS ([2]; 28 days after Foscan application, Experimental Group: Foscan 0.05 mg/kg PDT plus two 250 ml 10% Lipofundin infusions after irradiation): 10
- Number of patients exhibiting no detectable skin fluorescence as detected by OBS ([2]; 35 days after Foscan application, Control Group: Foscan 0.05 mg/kg PDT, no Lipofundin infusions): 10
- Number of patients exhibiting no detectable skin fluorescence as detected by OBS ([2]; 35 days after Foscan application, Experimental Group: Foscan 0.05 mg/kg PDT plus two 250 ml 10% Lipofundin infusions after irradiation): 10
- time of peak tumor concentration of mTHPC ([3]; Trial 1: mTHPC 10 μg per mouse, Trial 2: LMF, 5 μg mTHPC per mouse solubilized in Lipofundin): 24 h
- skin concentration in Trial 1 relative to skin concentration after LMF injection ([3]; after 24 hours, Trial 1 dose twice that of Trial 2): almost four times
- tumor concentration in Trial 1 after 12 hours relative to peak tumor concentration in Trial 2 ([3]; mTHPC 10 μg per mouse, 12 hours, versus LMF peak): ⅔
- concentration at 24 h ([3]; skin, other: injection (site not specified), Trial 1, mTHPC 10 μg per mouse, after 24 hours): ~260 ng/g
